Patent publication US6685962B2, “Gastroretentive controlled release pharmaceutical dosage forms” (priority 1999, dated 2004)

Experiment: Riboflavin plasma pharmacokinetics and bioavailability after IV bolus, oral solution or GRDF
Type: in vivo, Beagle dogs
Conditions: for log-terminal slope of plasma riboflavin concentration: 100 mg riboflavin-5-phosphate, dogs n=6
Protocol: Each dog received the drug by each of these modes, with at least one-week washout period between every phase of the study.
Following each administration blood samples (4 ml) were collected into 5 ml heparinized test tubes wrapped in aluminum foil (to protect from light), for modes (1) and (2) at times 0, 0.25, 0.5, 1, 1.5, 2, 2.5, 3, 3.5, 4, 6, 8, 11, 24 hours, and for mode (3) at times 0, 0.5, 1, 1.5, 2, […], 3, 4, 6, 9, 12, 15, 18, 21, 24, 27, 30, 33, 36 and 48 hours. Plasma was separated following centrifugation (4000 rpm for 10 minutes), and stored at −20° C. pending analysis.
Riboflavin plasma concentrations were determined by an HPLC method as follows: 100 μl trichloroacetic acid (20%) was mixed with 300 μl of a plasma sample. Following centrifugation of the mixture (13,000 rpm for 10 minutes) the supernatant was separated and incubated for 10 min at 85° C. After additional centrifugation (13,000 rpm for 10 minutes) 60 μl of the solution were injected to C18 HPLC column, with mobile phase that consisted of 15% acetonitrile in solution A (10 mmol potassium dihydrogen phosphate/L and 5 mmol hexanesulfonic acid/L, brought to a pH of 3 with orthophosphoric acid) at a flow rate of 1 ml/min. A spectrofluorometric detector set at 445 nm for excitation wavelength and 530 nm for emission wavelength detected the drug. Drug concentrations were determined with appropriate standard curves.

bioavailability (Beagle, dog, plasma, 100 mg, oral administration (oral solution), dogs, read-out: absolute bioavailability of riboflavin): 5.8 ± 2.2%
rate of riboflavin elimination (concluded from iv and PO administration, dogs): 0.4 h⁻¹
log-terminal slope of plasma riboflavin concentration (intravenous bolus): 0.44±0.13 hr^−1
log-terminal slope of plasma riboflavin concentration (oral solution): 0.35±0.14 hr^−1
SMILES: Cc1cc2nc3c(=O)[nH]c(=O)nc-3n(C[C@H](O)[C@H](O)[C@H](O)CO)c2cc1C [riboflavin]
